Measurements published in patent US9789098B2, “Nootropic compositions for improving memory performance” (Pharnext, priority 2012, dated 2017).

What was measured:
clinical = conditions: human, in vivo, po
Text: Pharmacodynamics of baclofen and acamprosate have been established in the frame of clinical trial.

[1] = tested on: 11 month-old C57B1/6 mice; test: % of alternation in T-maze test, healthy mice (short term memory); format: in vivo; conditions: administered once 2 hours before the test, very low doses (mix doses 4 and 5), FIG. 2
Procedure: 11 month-old C57B1/6 mice are used. They are group-housed (5-10 mice per cage) and maintained in a room with controlled temperature (21-22° C.) and a reversed light-dark cycle (12 h/12 h; lights on: 17:30-05:30; lights off: 05:30-17:30) with food and water available ad libitum.
Drugs are solubilized in water and freshly prepared just before each gavage or ip administration and are kept under agitation.
Doses of drugs of the invention are exemplified in table 4. Concerning acamprosate calcium, the indicated doses refer to the doses of the salt of molecule.
Between day 0 and day 7, drug combinations or the vehicle solution were administered twice daily (at 8:00 am and 6:00 pm). One animal group receives donepezil (reference compound 0.3 mg/kg) at 8:00 am and the vehicle at 6:00 pm.
On day 8, all animals were tested for the % of alternation performance in the T-maze test, 2 hours after the administration of drugs combination or the vehicle solution.
The eve of the test, drug combinations or the vehicle solution were administered at 8:00 am and 6:00 pm. […]
The effect of the administration of combinations on short term memory was assessed for different durations of treatment (7 days, 1 day, 2 hours before the test). […]
The percent spontaneous alternation was calculated as the number of spontaneous alternations divided by the number of free-choice trials. […]

Row | Structure (SMILES) | Tmax (clinical) [h] | improvement of learning and working memory performances vs vehicle [1]
1 | NCC(CC(=O)O)c1ccc(Cl)cc1 (racemic) [baclofen, Baclofen] | 1.5 | no significant improvement
2 | CC(=O)NCCCS(=O)(=O)O [acamprosate, Acamprosate] | 1.5 to 2 | no significant improvement
